Columns and labels:
HIF1-alpha = assay: Measurement of the stabilization of HIF1-alpha in HEKEA cells (beta-galactosidase complementation, luminescence); assay type: cell-based, human; conditions: HEKEA_HIF1-alphaPLBL cells, 6 hours incubation under normoxia; concentration that produces 50% of the maximum response of this same compound
Text: Furthermore, a subject of the invention is also a uniform test process for the direct measurement by beta-galactosidase complementation of the amount of HIF1-alpha protein in the nucleus of cells, preferably HEK cells, after treating the said cells with one or more test compounds, which consists in: • (a) inoculating, preferably in 384-well plates, the said cells in a suitable culture medium, preferably 1% foetal calf serum (abbreviated as FCS); • (b) adding the test compound(s) at a suitable concentration in a suitable solvent to the cells previously inoculated in the said culture medium; preferably the test compounds are diluted in 0.1% FCS; • (c) incubating the said cells thus prepared in an indicator at about 37° C., advantageously for about 6 hours; • (d) lysing the cells with a lysis buffer containing a chemiluminescent substrate for beta-galactosidase; • (e) incubating in the absence of light, before reading and measuring the luminescence, which is a function of the beta-galactosidase activity.
Many tests exist describing the indirect measurement of the activity of HIF via reporter gene systems (HRE-luciferase) or via the measurement of HIF-induced proteins (for example VEGF or EPO). Furthermore, the only tests that allow direct measurement of the amount of HIF1-alpha protein in cells are tests using antibodies, for instance Western blotting comprising phases of cell extraction (total lysates or nuclear extracts) that are consuming in terms of cells and time, thus limiting the compound screening capacity. The object was thus to develop a sensitive screening test, adaptable to 384-well plates, for directly measuring the amount of HIF1-alpha protein in the nucleus of cells. This test was established in HEK cells ([…]).
The test is a cell test based on the principle of enzyme complementation, the enzyme used herein being beta-galactosidase. HEKEA cells are HEK cells stably expressing, and restricted in their nucleus, mutant beta-galactosidase (omega fragment, also known as EA) (line sold by DiscoverX). This construct makes it possible to obtain beta-galactosidase activity only when the protein comprising the Prolabel complementation fragment has migrated into the nucleus.
The protein of interest comprising the Prolabel fragment is in this case an HIF1-alpha or HIF1-alpha mutated at the two prolines 402 and 564 replaced with alanines, is C-terminal fused via molecular biology (DiscoverX vector sold by Clontech) with the small complementation peptide fragment (Prolabel or ED, about 4 kDa). The vector coding for the chimeric protein HIF1-alpha_Prolabel is then transfected into HEKEA cells to obtain stable clones (HEKEA_HIF1-alphaPLBL).
The amount of C-terminal Prolabel-“labelled” HIF1-alpha protein obtained after treating the cells to hypoxia or compounds that are potentially HIF activators is measured by adding to the cells a lysis buffer containing a chemiluminescent substrate for beta-galactosidase.
The measurement of the beta-galactosidase activity will be proportional to the amount of Prolabel and thus of HIF1-alpha that has migrated into the nucleus of the cells.
• 1.3.1 Experiment Plan • 1) Inoculation of the cells on D0 • 2) Adherence for 24 hours under normoxia • 3) Preparation and addition of the products (Biomek 2000 and FX) on D+1 • 4) Incubation under normoxia for 6 hours • 5) Reading of the plates (by luminescence)
The cells are inoculated with Multidrop in white, opaque-bottomed 384-well plates (Greiner ref 3704), in 30 μl of culture medium (1% FCS) at 10 000 cells/well (cell plate). • 1.3.3 Treatment • Preparation of the Dilution Plate (DL Plate)
The test products are prepared at 3×10^−2 M in 100% DMSO and then diluted to 3×10^−4 M in medium containing 0.1% FCS (10 μl in 990 μl of MEM). They are then deposited by hand into column 12 of a round-bottomed 96-well plate (200 μl of each compound) known as the dilution plate (dl). […]

[1] = tested on: EPO secretion by Hep3B cells; assay: Measurement of the secretion of EPO by Hep3B hepatocytes (ELISA on supernatant); assay type: cell-based; conditions: Homo sapiens, 18 hours incubation under normoxia, EPO in supernatant, 50% of the maximum response of this same compound
Text: (§1) 2. Measurement of the Secretion of VEGF and EPO by Hep3B Hepatocytes 2.1. Object
(§2) HIF is a transcription factor involved in the adaptation of cells to hypoxia. Since the genes activated by HIF are involved in the adaptive response of cells to hypoxia and of tissues to ischaemia, the object is to identify and characterize compounds that stabilize HIF1-alpha in cells in order to amplify or mimic its beneficial effect. HIF1-alpha was identified following the analysis of the EPO gene promoter, which makes this protein one of the first markers of HIF1-alpha activation. Moreover, VEGF is also identified in the literature as one of the main markers of HIF activation. It is for this reason that measurement of these two proteins was selected for characterizing compounds that are HIF activators in Hep3B cells.
(§3) The object was thus to develop a sensitive screening test, adaptable to 96-well plates, for directly measuring the amount of VEGF and EPO in the supernatant of the Hep3B cells (cells derived from a human hepatocarcinoma) in response to the potential HIF activators.
(§4) The test is an ELISA test for measuring VEGF and EPO in the supernatant of Hep3B cells treated under hypoxia or with deferoxamine as controls or with the potential HIF activators. The test was adapted to a 96-well plate, allowing greater compound screening capacity.
(§5) • 2.3.1 Experiment Plan • 1) Inoculation of the cells on D0 • 2) Adherence for 6 hours under normoxia • 3) Preparation and addition of the products (Biomek 2000 and FX) • 4) Incubation under normoxia for 18 hours • 5) EPO and VEGF assay in the supernatant on D+1 • 2.3.2 Inoculation of the Cells
(§6) The cells are subcultured into 100 μl of culture medium (10% FCS) in black, opaque-bottomed 96-well plates (reference Costar 3916) at 30 000 cells/well, with Multidrop. • 2.3.3 Treatment of the Cells
(§7) The test products are prepared at 10^−2 M in 100% DMSO and then diluted to […] in medium containing 0.1% FCS (6 μl in 194 μl of MEM). 200 μl of each compound are deposited in column 12 of a 96-well plate. Dilution ranges from […] to 3×10^−8M are prepared with Biomek 2000 (programme: range of 9 points in series). 100 μl of MEM 0.1% FCS and Deferoxamine 5×10^−3M are added as controls to column 3 and, respectively, to wells A,B,C,D and wells E,F,G,H • DL Plate Distribution in Cell Plates
(§8) The medium of the cells inoculated the day before into 96-well plates is changed for 90 μl of medium containing 0.1% FCS and 10 μl are distributed with FX 96 from the 96-well DL plates to the cell plates.
(§9) The cell plates thus treated are placed for 18 hours in an incubator at 37° C. (ambient O2, 6% CO2).
(§10) The supernatants (80 μl) of the Hep3B cells in the 96-well plates treated with the potential HIF activators are recovered with a multichannel pipette for simultaneous assay of the VEGF and the EPO by ELISA according to the supplier's instructions (Kit EPO Mesoscale (ref K15122B-2)).
(§11) The activating activity of a compound with respect to HIF is given by the concentration that produces 50% of the maximum response of this same compound in Table IV below.

[2] = tested on: VEGF secretion by Hep3B cells; assay: Measurement of the secretion of VEGF by Hep3B hepatocytes (ELISA on supernatant); assay type: cell-based; conditions: Homo sapiens, 18 hours incubation under normoxia, VEGF in supernatant, 50% of the maximum response of this same compound
Text: as §1, §2, §3, §4, §5, §6, §7, §8, §9, §10, §11

Which results are given for `CCN(c1ccccc1)S(=O)(=O)c1ccc(-n2[nH]c(C)c(Cc3cc(OC)cc(OC)c3)c2=O)nc1` [Compound 47]?
EC50 (HIF1-alpha): 1100 nM; EC50 [1]: 2000 nM; EC50 [2]: 2800 nM; melting point: 162 °C

Which results are given for `CCN(c1ccccc1)S(=O)(=O)c1ccc(-n2[nH]c(C)c(C(C)(C)c3ccccc3)c2=O)nc1` [Compound 77, N-ethyl-6-[3-methyl-4-(1-methyl-1-phenylethyl)-5-oxo-2,5-dihydro-1H-pyrazol-1-yl]-N-phenylpyridine-3-sulfonamide]?
EC50 (HIF1-alpha): 4800 nM; EC50 [1]: 1400 nM; EC50 [2]: 1300 nM; melting point: 122 °C

With `CCCc1[nH]n(-c2ccc(S(=O)(=O)N(CC)c3ccccc3)cn2)c(=O)c1Cc1ccccc1` [Compound 68, 6-(4-benzyl-5-oxo-3-propyl-2,5-dihydro-1H-pyrazol-1-yl)-N-ethyl-N-phenylpyridine-3-sulfonamide] as the compound, how does the EC50 (HIF1-alpha) read?
Its EC50 is 1500 nM.

And the EC50 [1]?
The EC50 was 400 nM.

And the EC50 [2]?
The EC50 was 500 nM.

And the melting point?
Its melting point is 180 °C.

With `CCN(c1ccccc1)S(=O)(=O)c1ccc(-n2[nH]c(C)c(Cc3ccc(OC)cc3)c2=O)nc1` [Compound 54, N-ethyl-6-[4-(4-methoxybenzyl)-3-methyl-5-oxo-2,5-dihydro-1H-pyrazol-1-yl]-N-phenylpyridine-3-sulfonamide] as the compound, how does the EC50 (HIF1-alpha) read?
Its EC50 is 6400 nM.

And the EC50 [1]?
Its EC50 is 450 nM.

What about the EC50 [2] of the same compound?
The EC50 was 300 nM.

What about the melting point of the same compound?
Its melting point is 188 °C.

For `CCN(c1ccccc1)S(=O)(=O)c1ccc(-n2[nH]c(C)c(Cc3ccc(O)cc3)c2=O)nc1` [Compound 48], which EC50 (HIF1-alpha) is on record?
The EC50 was 4300 nM.

And the EC50 [1]?
The EC50 was 1100 nM.

And the EC50 [2]?
The EC50 was 1900 nM.

What about the melting point of the same compound?
The melting point was 208 °C.

What does the source list for `CCN(c1ccccc1)S(=O)(=O)c1ccc(-n2[nH]c(C)c(Cc3ccccc3)c2=O)nc1` [Compound 42]?
EC50 (HIF1-alpha): 4800 nM; EC50 [1]: 1100 nM; EC50 [2]: 1300 nM; melting point: 212 °C

With `CCN(c1ccccc1)S(=O)(=O)c1ccc(-n2[nH]c(C)c(Cc3cc(OC)ccc3OC)c2=O)nc1` [Compound 44] as the compound, how does the EC50 (HIF1-alpha) read?
The EC50 was 3100 nM.

What about the EC50 [1] of the same compound?
Its EC50 is 1900 nM.

What about the EC50 [2] of the same compound?
The EC50 was 2100 nM.

And the melting point?
The melting point was 140 °C.

From patent US8541455B2, “Derivatives of 2-pyridin-2-yl-pyrazol-3(2H)-one, preparation and therapeutic use thereof as HIF activators” (Sanofi, priority 2008, dated 2013)
